Patent US11701373B2, “Substituted bicyclic compounds” (BRISTOL-MYERS SQUIBB COMPANY, priority 2014, dated 2023)
Entries after “also recorded” stand apart in the source; their conditions may differ.

How the values were obtained:
[1] = tested on: Lewis rats; test: Blood Lymphocyte Reduction (BLR) Assay in rat; assay type: in vivo; details: for Percent reduction vs. control at 24 hr post-dose (blood lymphocytes): rat, oral, 0.1 mg/kg
Experimental: (§1) Blood Lymphocyte Reduction (BLR) Assay in Rodent:
(§2) Lewis rats or BALB/c mice were dosed orally with vehicle alone (polyethylene glycol 300, “PEG300”) or with test compounds. Compounds were dosed as a solution or suspension in the vehicle, adjusted to reflect the free amount of test article in the event that salt forms are utilized. Blood was drawn at 24 hr and blood lymphocyte counts were determined on an ADVIA 120 Hematology Analyzer (Siemens Healthcare Diagnostics). The results were measured as a reduction in the percentage of circulating lymphocytes as compared to the vehicle treated group at the time of measurement. The results represent the average results of all animals within each treatment group (n=2-4).

[2] = tested on: Male Lewis rats; test: Rat Adjuvant Induced Arthritis Assay (AA); assay type: in vivo; details: prophylactic oral dosing regimen
Experimental: Rat Adjuvant Induced Arthritis Assay (AA)
The rat adjuvant-induced arthritis model is an animal model for human rheumatoid arthritis.
Male Lewis rats (150-175 g; Harlan, n=8 treatment group) were immunized at the base of the tail with 100 μl of 10 mg/ml freshly ground Mycobacterium butyricum (Difco Laboratories) in incomplete Freund's adjuvant (sigma). Animals were dosed once daily with the test article (as a solution or suspension in the vehicle) or vehicle alone (polyethylene glycol 300, “PEG300”) starting from the day of immunization. The volumes of their hind paws were measured in a water displacement plethysmometer (Ugo Basile, Italy). The baseline paw measurements were taken before onset of the disease (between day 7 to day 10). The paw measurements were then taken three times a week until the end of the study on day 20 to 21. All procedures involving animals were reviewed and approved by the Institutional Animal Care Use Committee.

[3] = tested on: Female Lewis rats; test: Rat Experimental Autoimmune Encephalomyelitis (EAE); assay type: in vivo; details: prophylactic oral dosing regimen
Experimental: Rat Experimental Autoimmune Encephalomyelitis (EAE)
Female Lewis rats (150-200 g; Harlan) were immunized at the base of the tail with 0.1 ml of a complete Freund's adjuvant emulsion containing 0.5 mg/mL guinea pig myelin basic protein (Genemed Synthesis) and 2 mg/mL Mycobacterium butyricum (Difco). Beginning on Day 7, rats (n=11/group) were scored individually at least 3×/wk according to the following scheme:
Average clinical scores were calculated for each treatment group on each day of assessment.

[4] = tested on: C57BL/6 mice; test: Mouse Experimental Autoimmune Encephalomyelitis Assay (EAE); assay type: in vivo; details: for inhibition of disease progression as measured by clinical scores: C57Bl/6 mice, prophylactic oral dosing regimen; for Clinical scores on day 22, Mean: C57BL/6 mice, prophylactic, vehicle mean 4.1
Experimental: Mouse Experimental Autoimmune Encephalomyelitis Assay (EAE)
Mice (C57BL/6 female, 6-8 weeks of age, Charles River, n=10 treatment group) were immunized subcutaneously with 150 μg MOG35-55 emulsified 1:1 with incomplete Freund's adjuvant (sigma) supplemented with 150 μg Mycobacterium tuberculosis H37RA (Difco Laboratories). 400 ng of pertussis toxin (CalBiochem) was injected intraperitoneally on the day of immunization and 2 day later. Clinical scoring and body weight were taken 3 times per week. Clinical scoring system: 0.5: partial tail weakness; 1: limp tail or waddling gait with tail tonicity; 1.5: waddling gait with partial tail weakness; 2: waddling gait with limp tail (ataxia); 2.5: ataxia with partial limb paralysis; 3: full paralysis of one limb; 3.5: full paralysis of one limbs with partial paralysis of a second limb; 4: full paralysis of two limbs; 4.5: moribund; 5: death. Mean clinical score was calculated by averaging the scores of all mice in each group. All procedures involving animals were reviewed and approved by the Institutional Animal Care Use Committee.

[5] = tested on: Male MRL/lpr mice; test: MRL/lpr Lupus Model (anti-dsDNA antibody titers, kidney histology); assay type: in vivo, mouse; details: for Anti-dsDNA antibody titers (23 weeks of age) (Mean): ratio to pooled MRL/lpr immune serum titer; for Kidney Histology (nephritis) 23 weeks of age (Mean): total score, highest possible 36
Experimental: MRL/lpr is a spontaneous model of lupus. Male MRL/lpr mice (Jackson Laboratory) at the age of 12-14 weeks were enrolled for the study (N=12). Mice were dosed p.o. daily with vehicle (18.4% (w/v) hydroxypropyl-b-cyclodextrin in 13.8 mM citric acid) or with Example 681 at 0.06, 0.3, 1.5 mg/kg. Mice were bled every other week for anti-dsDNA antibodies measured by ELISA using pooled serum from diseased MRL/lpr mice as a positive comparator in each assay. The data were expressed in arbitrary units as a ratio of the titer of the test serum to the titer of the pooled MRL/lpr immune serum.
At the end of study, one kidney was collected into 10% neutral buffered formalin and ZincTris fixatives. Fixed tissues were processed into paraffin blocks, sectioned at 3p m, and stained with H&E or PASH. Kidney sections were graded using following criteria: Glomerular Damage: 1. Mesangial matrix thickening, cell proliferation, 2. Crescent formation, cellular deposits/casts in Bowman's space, 3. Cellular infiltration, mononuclear cells in glomerular tufts, 4. Fibrosis of Bowman's capsule. Tubular damage: 1. Infiltration of mononuclear cells, 2. Severity of tubular damage, 3. Protein casts. Tubulo-interstitial damage: 1. Fibrosis, 2. Infiltration of mononuclear cells. Each subcategory was assigned a score from 0-4, with the scores for glomerular indices representing the mean from 20 glomeruli per kidney. The total score for each mouse was the sum of the above 9 subcategories, with the highest possible score=36.

[6] = tested on: BALB/c mice; test: Blood Lymphocyte Reduction (BLR) Assay in mouse; assay type: in vivo
Experimental: as §1, §2

## COCCCCCC1CCc2cc([C@@H]3CC[C@](N)(CO)C3)ccc2C1 (single isomer, unassigned) [Example 674]
[1]
  Percent reduction vs. control at 24 hr post-dose (blood lymphocytes): 30%

## COCCCCCC1CCc2cc([C@@H]3CC[C@](N)(CO)C3)ccc2C1 (single isomer, unassigned) [Example 675]
[1]
  Percent reduction vs. control at 24 hr post-dose (blood lymphocytes): 63%

## COCCCCC[C@H]1CCc2cc([C@H]3CC[C@](N)(CO)C3)ccc2C1 [Example 672, ((1R,3S)-1-amino-3-((S)-6-(5-methoxypentyl)-5,6,7,8-tetrahydronaphthalen-2-yl)cyclopentyl)methanol]
[2]
  inhibition of disease progression as measured by reduced paw swelling: showed inhibition of disease progression

## CCOCCC[C@H]1CCc2cc([C@H]3CC[C@](N)(CO)C3)ccc2C1 [Example 678, ((1R,3S)-1-amino-3-((R)-6-(3-ethoxypropyl)-5,6,7,8-tetrahydronaphthalen-2-yl)cyclopentyl)methanol]
[1]
  Percent reduction vs. control at 24 hr post-dose (blood lymphocytes): 16%

## CCOCCC[C@@H]1CCc2cc([C@H]3CC[C@](N)(CO)C3)ccc2C1 [Example 679, ((1R,3S)-1-amino-3-((S)-6-(3-ethoxypropyl)-5,6,7,8-tetrahydronaphthalen-2-yl)cyclopentyl)methanol]
[3]
  inhibition of disease progression as measured by reduced clinical scores: showed inhibition of disease progression
[1]
  Percent reduction vs. control at 24 hr post-dose (blood lymphocytes): 65%
[2]
  inhibition of disease progression as measured by reduced paw swelling: showed inhibition of disease progression
[4]
  inhibition of disease progression as measured by clinical scores: showed inhibition of disease progression; also recorded: inhibit disease progression

## COc1ccccc1CC[C@H]1CCc2cc([C@H]3CC[C@](N)(CO)C3)ccc2C1 [Example 682, ((1R,3S)-1-amino-3-((R)-6-(2-methoxyphenethyl)-5,6,7,8-tetrahydronaphthalen-2-yl)cyclopentyl)methanol]
[1]
  Percent reduction vs. control at 24 hr post-dose (blood lymphocytes): 17%

## ((1R,3S)-1-amino-3-((S)-6-(2-methoxyphenethyl)-5,6,7,8-tetrahydronaphthalen-2-yl)cyclopentyl)methanol [Example 681]
[5]; 0.06 mg/kg p.o. daily
  Anti-dsDNA antibody titers (23 weeks of age) (Mean): 1.861 arbitrary units
  Kidney Histology (nephritis) 23 weeks of age (Mean): 10.13
[5]; 0.3 mg/kg p.o. daily
  Anti-dsDNA antibody titers (23 weeks of age) (Mean): 0.978 arbitrary units
  Kidney Histology (nephritis) 23 weeks of age (Mean): 10.00
[5]; 1.5 mg/kg p.o. daily
  Anti-dsDNA antibody titers (23 weeks of age) (Mean): 1.023 arbitrary units
  Kidney Histology (nephritis) 23 weeks of age (Mean): 12.63
[5]; p.o. daily
  inhibition of disease progression as measured by anti-dsDNA titers: showed inhibition of disease progression
  inhibition of disease progression as measured by kidney histology: showed inhibition of disease progression
[1]
  Percent reduction vs. control at 24 hr post-dose (blood lymphocytes): 53%
[1]; rodent BLR assay, 0.1 mg/kg oral, 24 hours post-dose, versus vehicle group
  lymphocyte reduction: 53%
[4]; 0.1 mg/kg oral
  Clinical scores on day 22, Mean: 3.1
[4]; 0.5 mg/kg oral
  Clinical scores on day 22, Mean: 1.1
[4]; 2 mg/kg oral
  Clinical scores on day 22, Mean: 0.8
[4]
  inhibition of disease progression as measured by clinical scores: showed inhibition of disease progression; also recorded: inhibit disease progression
[6]; mice, 0.5 mg/kg oral, 24 hours post dose
  lymphocyte reduction: 85%
[6]; mouse, oral, 0.5 mg/kg, 24 hr post-dose
  Mouse Blood Lymphocyte Reduction Assay at 24 hr post-dose Percent reduction vs. control: 85%
